Experimental data taken from ChEMBL document CHEMBL3792297, “Studies on phenothiazines: New microtubule-interacting compounds with phenothiazine A-ring as potent antineoplastic agents” (Bioorg Med Chem, 2016).

Columns and labels:
Assay type in all cases: functional
[1] = Growth inhibition of human OVCAR8 cells at 10 uM after 48 hrs by SRB assay relative to control; details: OVCAR-8, 48 h, read-out: GI
[2] = Growth inhibition of human SKOV3 cells at 10 uM after 48 hrs by SRB assay relative to control; details: SK-OV-3, 48 h, read-out: GI
[3] = Growth inhibition of human OVCAR4 cells at 10 uM after 48 hrs by SRB assay relative to control; details: OVCAR-4, 48 h, read-out: GI
[4] = Growth inhibition of human SNB19 cells at 10 uM after 48 hrs by SRB assay relative to control; details: SNB-19, 48 h, read-out: GI
[5] = Growth inhibition of human UACC62 cells at 10 uM after 48 hrs by SRB assay relative to control; details: UACC-62, 48 h, read-out: GI
[6] = Growth inhibition of human MOLT4 cells at 10 uM after 48 hrs by SRB assay relative to control; details: MOLT-4, 48 h, read-out: GI
Malme-3M = assay: Growth inhibition of human MALME-3M cells at 10 uM after 48 hrs by SRB assay relative to control; details: read-out: GI
CCRF-CEM = assay: Growth inhibition of human CCRF-CEM cells at 10 uM after 48 hrs by SRB assay relative to control; details: read-out: GI
[7] = Growth inhibition of human LOXIMVI cells at 10 uM after 48 hrs by SRB assay relative to control; details: LOX IMVI, read-out: GI
M14 = assay: Growth inhibition of human M14 cells at 10 uM after 48 hrs by SRB assay relative to control; details: M14, 48 h, read-out: GI
[8] = Growth inhibition of human Caki1 cells at 10 uM after 48 hrs by SRB assay relative to control; details: CAKI-1, 48 h, read-out: GI
[9] = Growth inhibition of human TK10 cells at 10 uM after 48 hrs by SRB assay relative to control; details: TK-10, 48 h, read-out: GI
[10] = Growth inhibition of human PC3 cells at 10 uM after 48 hrs by SRB assay relative to control; details: PC-3, 48 h, read-out: GI
[11] = Growth inhibition of human COLO205 cells at 10 uM after 48 hrs by SRB assay relative to control; details: COLO 205, 48 h, read-out: GI
[12] = Growth inhibition of human HOP62 cells at 10 uM after 48 hrs by SRB assay relative to control; details: HOP-62, 48 h, read-out: GI
[13] = Growth inhibition of human OVCAR5 cells at 10 uM after 48 hrs by SRB assay relative to control; details: OVCAR-5, 48 h, read-out: GI
NCI-H460 = assay: Growth inhibition of human NCI-H460 cells at 10 uM after 48 hrs by SRB assay relative to control; details: NCI-H460, 48 h, read-out: GI
MCF7 = assay: Growth inhibition of human MCF7 cells at 10 uM after 48 hrs by SRB assay relative to control; details: MCF7, 48 h, read-out: GI
SN12C = assay: Growth inhibition of human SN12C cells at 10 uM after 48 hrs by SRB assay relative to control; details: read-out: GI
U-251 = assay: Growth inhibition of human U251 cells at 10 uM after 48 hrs by SRB assay relative to control; details: U-251, 48 h, read-out: GI
EKVX = assay: Growth inhibition of human EKVX cells at 10 uM after 48 hrs by SRB assay relative to control; details: read-out: GI
[14] = Growth inhibition of human RXF393 cells at 10 uM after 48 hrs by SRB assay relative to control; details: RXF 393, 48 h, read-out: GI

SMILES | inhibition of growth at 10 µM [1] [%] | inhibition of growth at 10 µM [2] [%] | inhibition of growth at 10 µM [3] [%] | inhibition of growth at 10 µM [4] [%] | inhibition of growth at 10 µM [5] [%] | inhibition of growth at 10 µM [6] [%] | inhibition of growth at 10 µM (Malme-3M) [%] | inhibition of growth at 10 µM (CCRF-CEM) [%] | inhibition of growth at 10 µM [7] [%] | inhibition of growth at 10 µM [8] [%] | inhibition of growth at 10 µM [9] [%] | inhibition of growth at 10 µM [10] [%] | inhibition of growth at 10 µM [11] [%] | inhibition of growth at 10 µM [12] [%] | inhibition of growth at 10 µM [13] [%] | inhibition of growth at 10 µM (NCI-H460) [%] | inhibition of growth at 10 µM (MCF7) [%] | inhibition of growth at 10 µM (SN12C) [%] | inhibition of growth at 10 µM (U-251) [%] | inhibition of growth at 10 µM [14] [%] | further results
O=C(c1ccc(F)cc1F)N1c2ccccc2Sc2ccccc21 | 35 | 22 | 17 | 37 | 68 | 69 | 44 | 38 | 74 | 51 | 23 | 58 | 56 | 33 | 21 | 80 | 48 | 9 | 66 | 35 | inhibition of growth at 10 µM (M14): 35%; inhibition of growth at 10 µM (EKVX): 20%
COc1ccc(C(=O)c2ccc3c(c2)Sc2ccccc2N3C)cc1F | 4 |  | 10 | 15 | 26 | 17 | 24 | 12 | 21 | 22 | 8 | 21 | 34 | 17 | 12 | 13 | 37 | 13 | 18 | 11 | 
O=C(c1ccc(F)c(Cl)c1)N1c2ccccc2Sc2ccccc21 | 10 | 11 | 20 | 23 | 74 | 56 | 36 | 42 | 59 | 47 | 15 | 60 | 55 | 23 | 13 | 1 | 49 | 1 | 61 | 29 | inhibition of growth at 10 µM (M14): 47%; inhibition of growth at 10 µM (EKVX): 26%
O=C(c1ccc(Cl)cc1Cl)N1c2ccccc2Sc2ccccc21 | 49 | 31 | 18 | 43 | 57 | 74 | 36 | 43 | 76 | 50 | 27 | 56 | 55 | 35 | 29 | 82 | 48 | 33 | 67 | 30 | inhibition of growth at 10 µM (M14): 40%; inhibition of growth at 10 µM (EKVX): 24%
